Legend:
[1] = Allergy study (repeated skin contact); type: in vivo
Source text: Observe the immune system response on skin after repeating skin contact animal skin with testing object.

[2] = tested on: filamentous fungi represented by Trichophyton rubrum; test: In vitro antifungal activity (MIC), filamentous fungi; type: cell-based
Source text: (§1) To understand the in vivo and in vitro antibacterial effects, and to determine the in vivo and in vitro antibacterial activity through measuring the compound Bifonazole cream (Bifonazole/Triamcinolone acetonide acetate) on common pathogenic fungi of the minimum inhibitory concentration (MIC).

[3] = tested on: candida such as candida Albicans; test: In vitro antifungal activity (MIC), candida; type: cell-based
Source text: as §1

[4] = tested on: 543 common fungi; test: In vitro pharmacodynamics of nine antifungal agents against 543 common fungi; type: cell-based
Source text: as §1

[5] = Long-term toxicity study by skin exposure; type: in vivo, rats; details: rat
Source text: Observe the abnormal reaction and degree of reversibility of the reaction caused by skin penetration through long-term exposure the animal's skin to subject drug.

Row | SMILES | average response ([1]; 24 hours) | average response ([1]; 48 hours) | average response ([1]; 72 hours) | average response ([1]; by instance) | allergenic rate ([1]; in vivo) [%] | erythema and edema ([1]; in vivo) | antibacterial activity on filamentous fungi [2] | antibacterial activity on candida [3] | antimicrobial activity against common fungal skin infections compared with econazole, ketoconazole, clotrimazole and miconazole [4] | minimum toxic dosage on main target organ (liver) [5] [g/kg]
1 | O=[N+]([O-])c1ccc(Cl)c([N+](=O)[O-])c1 [2,4-dinitro-chlorobenzene] | 2.4 | 2.7 | 2.9 | 2.4 | 100 | 10 animals all have erythema and edema | – | – | – | –
2 | c1ccc(-c2ccc(C(c3ccccc3)n3ccnc3)cc2)cc1 (stereo not shown) [Bifonazole] | – | – | – | – | – | – | strong antibacterial activity | a certain antibacterial activity | slightly stronger | 2

From patent US20110118220A1, “Composition of bifonazole and its use” (priority 2009, published 2011)
